Laboratory results reported in the NIST ThermoML archive (doi:10.1016/j.jct.2012.06.031).

Assay: xn = mol fraction of the nth substance listed
Details: 101 kPa, Liquid; for viscosity: Concentric cylinders viscometry; for mass density: Vibrating tube method

c1ccncc1 [pyridine] + OCC(O)CO
Details | mass density, 288.15 K [kg/m3] | mass density, 293.15 K [kg/m3] | mass density, 298.15 K [kg/m3] | mass density, 303.15 K [kg/m3] | viscosity, 288.15 K [mPa·s] | viscosity, 293.15 K [mPa·s] | viscosity, 298.15 K [mPa·s] | viscosity, 303.15 K [mPa·s]
x1 = 0.1 | 1237.23 | 1233.99 | 1230.73 | 1227.44 | 1518 | 946.3 | 608.94 | 403.56
x1 = 0.2001 | 1209.17 | 1205.75 | 1202.25 | 1198.74 | 853.01 | 539.76 | 352.75 | 237.3
x1 = 0.3001 | 1182.56 | 1178.91 | 1175.23 | 1171.52 | 438.65 | 283.85 | 189.75 | 130.53
x1 = 0.4 | 1156.91 | 1153.16 | 1149.36 | 1145.49 | 202.46 | 135.63 | 93.82 | 66.75
x1 = 0.4998 | 1130.25 | 1126.26 | 1122.23 | 1118.17 | 86.64 | 60.5 | 43.51 | 32.21
x1 = 0.6001 | 1103.35 | 1099.12 | 1094.86 | 1090.58 | 29.67 | 22.37 | 17.25 | 13.57
x1 = 0.6999 | 1075.51 | 1071.23 | 1066.63 | 1062.16 | 7.871 | 6.966 | 6.111 | 5.257
x1 = 0.8001 | 1047.04 | 1042.41 | 1037.6 | 1033.11 | 4.241 | 3.639 | 3.155 | 2.765
x1 = 0.8999 | 1018 | 1013.18 | 1008.34 | 1003.49 | 1.944 | 1.748 | – | 1.439
x1 = 1 | 988.061 | 983.038 | 978.006 | 972.967 | 1.03 | 0.9588 | 0.8943 | 0.8355
